According to PubChem BioAssay AID330 (DTP/NCI, 2004):
“And” between values parts separate entries of the source, which are not always exact repeats. Identical values can stand only once. Inconclusive results and toxic doses are left out.

Tested on: P388 leukemia ip, CD2F1 mice, survival T/C
Assay: NCI In Vivo Anticancer Drug Screen. Data for tumor model P388 Leukemia (intraperitoneal) in CD2F1 (CDF1) mice
Settings: endpoint: median survival time, higher = longer survival
Method in brief: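 Mice carrying the transplanted tumor received test compound or vehicle. Survival was recorded in each group, and the value is the treated-group measurement divided by that of the vehicle-treated control group.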

[1] = dose: 50.0 mg/kg/injection, schedule: Q01DX009 (ip), vehicle: saline with Tween-80
[2] = dose: 100.0 mg/kg/injection, schedule: Q01DX009 (ip), vehicle: saline with Tween-80
[3] = dose: 200.0 mg/kg/injection, schedule: Q01DX009 (ip), vehicle: saline with Tween-80
[4] = dose: 100.0 mg/kg/injection, schedule: Q04DX002 (ip), vehicle: saline with Tween-80
[5] = dose: 200.0 mg/kg/injection, schedule: Q04DX002 (ip), vehicle: saline with Tween-80
[6] = dose: 400.0 mg/kg/injection, schedule: Q04DX002 (ip), vehicle: saline with Tween-80
[7] = dose: 60.0 mg/kg/injection, schedule: Q01DX005 (ip), vehicle: saline with Tween-80
[8] = dose: 120.0 mg/kg/injection, schedule: Q01DX005 (ip), vehicle: saline with Tween-80
[9] = dose: 240.0 mg/kg/injection, schedule: Q01DX005 (ip), vehicle: saline with Tween-80
[10] = dose: 50.0 mg/kg/injection, schedule: Q01DX005 (ip), vehicle: saline with Tween-80
[11] = dose: 100.0 mg/kg/injection, schedule: Q01DX005 (ip), vehicle: saline with Tween-80
[12] = dose: 200.0 mg/kg/injection, schedule: Q01DX005 (ip), vehicle: saline with Tween-80
[13] = dose: 25.0 mg/kg/injection, schedule: Q01DX005 (ip), vehicle: saline with Tween-80
[14] = dose: 50.0 mg/kg/injection, schedule: Q01DX005 (ip), vehicle: saline
[15] = dose: 100.0 mg/kg/injection, schedule: Q01DX005 (ip), vehicle: saline
[16] = dose: 200.0 mg/kg/injection, schedule: Q01DX005 (ip), vehicle: saline
[17] = dose: 50.0 mg/kg/injection, schedule: Q01DX005 (ip), vehicle: Klucel (hydroxypropylcellulose) (HPC)
[18] = dose: 100.0 mg/kg/injection, schedule: Q01DX005 (ip), vehicle: Klucel (hydroxypropylcellulose) (HPC)

FC(F)C(F)(F)C(F)(F)C(F)(F)COCC1(COCC(F)(F)C(F)(F)C(F)(F)C(F)F)COC1 was tested, and the T/C [1] was 100 % of control, the T/C [2] was 106 % of control and the T/C [3] was 109 % of control.
With CCO/C(C)=C(\C#N)C(Cl)=Nc1ccc(OC)cc1 the T/C [4] was 108 % of control, the T/C [5] was 101 % of control and the T/C [6] was 100 % of control.
In the case of O=c1[nH]c2ccc(O)cc2o1, the T/C [7] is reported as 108 % of control, the T/C [8] is reported as 95 % of control and the T/C [9] is reported as 100 % of control.
CCC[As](C)SCC1OC(OC(C)=O)C(OC(C)=O)C(OC(C)=O)C1OC(C)=O (configuration not stated) was tested, and the T/C [1] was 110 % of control, the T/C [2] was 102 % of control and the T/C [3] was 118 % of control.
In the case of O=C1c2cc3c(cc2C(=O)c2[nH]c(=O)ccc21)CCCC3, the T/C [10] is reported as 100 % of control, the T/C [11] is reported as 88 % of control and the T/C [12] is reported as 101 % of control.
For O=c1oc2cc(Cl)cnc2n1-c1ccccc1, the T/C (dose: 100.0 mg/kg/injection, schedule: Q01DX001 (ip), vehicle: Klucel (hydroxypropylcellulose) (HPC)) was 96 % of control, the T/C (dose: 200.0 mg/kg/injection, schedule: Q01DX001 (ip), vehicle: Klucel (hydroxypropylcellulose) (HPC)) was 98 % of control and the T/C (dose: 400.0 mg/kg/injection, schedule: Q01DX001 (ip), vehicle: Klucel (hydroxypropylcellulose) (HPC)) was 90 % of control.
For C=CC(C)(C)c1c2c(c(OC)c3ccc(=O)oc13)C=CC(C)(C)O2, the T/C [13] was 105 % of control, the T/C [10] was 99 % of control and 94 % of control and the T/C [11] was 96 % of control.
For CCCCCCCCCCCCCCCCc1c(C)nc(N(C)C)oc1=O, the T/C [7] was 103 % of control, the T/C [8] was 97 % of control and the T/C [9] was 98 % of control and 100 % of control.
For CCOC(=O)C(C)n1ncnn1 (configuration not stated), the T/C [14] was 107 % of control, the T/C [15] was 102 % of control and the T/C [16] was 98 % of control.
For CC(=O)NS(=O)(=O)c1ccc(N=Nc2c(O)n(-c3ccccc3)n(-c3ccccc3)c2=O)cc1, the T/C (dose: 50.0 mg/kg/injection, schedule: Q01DX009 (ip), vehicle: Klucel (hydroxypropylcellulose) (HPC)) was 88 % of control, the T/C (dose: 100.0 mg/kg/injection, schedule: Q01DX009 (ip), vehicle: Klucel (hydroxypropylcellulose) (HPC)) was 101 % of control and the T/C (dose: 200.0 mg/kg/injection, schedule: Q01DX009 (ip), vehicle: Klucel (hydroxypropylcellulose) (HPC)) was 109 % of control.
O=C(Nc1ccc(Cl)cc1)SC1=NCC(=O)N1c1ccccc1 was tested, and the T/C (dose: 0.78 mg/kg/injection, schedule: Q01DX005 (ip), vehicle: saline with Tween-80) was 101 % of control, the T/C (dose: 1.56 mg/kg/injection, schedule: Q01DX005 (ip), vehicle: saline with Tween-80) was 102 % of control and the T/C (dose: 3.13 mg/kg/injection, schedule: Q01DX005 (ip), vehicle: saline with Tween-80) was 98 % of control and 94 % of control. For the same compound, the T/C (dose: 6.25 mg/kg/injection, schedule: Q01DX005 (ip), vehicle: saline with Tween-80) was 94 % of control, the T/C [13] was 89 % of control and the T/C [11] was 88 % of control. The T/C [12] was 92 % of control.
For NC(=O)C1CCCN(C2OC(COP(=O)(O)OP(=O)(O)OCC3OC(n4nnc5c(=O)[nH]c(N)nc54)C(O)C3O)C(O)C2O)C1 (configuration not stated), the T/C [14] was 115 % of control, the T/C [15] was 98 % of control and the T/C [16] was 87 % of control.
O=S(=O)(OC1=CCCCCC1)C(F)(F)F was tested, and the T/C (dose: 50.0 mg/kg/injection, schedule: Q01DX009 (ip), vehicle: olive oil, sesame oil, peanut oil) was 106 % of control, the T/C (dose: 100.0 mg/kg/injection, schedule: Q01DX009 (ip), vehicle: olive oil, sesame oil, peanut oil) was 91 % of control and the T/C (dose: 200.0 mg/kg/injection, schedule: Q01DX009 (ip), vehicle: olive oil, sesame oil, peanut oil) was 114 % of control.
In the case of Cc1cc(N=[N+]=[N-])c2cc(C3CCCCC3)ccc2n1, the T/C [7] is reported as 94 % of control, the T/C [8] is reported as 93 % of control and the T/C [9] is reported as 92 % of control.
With c1ccc2c(NCCCCCCCNc3c4ccccc4nc4ccccc34)c3ccccc3nc2c1 the T/C (dose: 2.5 mg/kg/injection, schedule: Q01DX009 (ip), vehicle: other) was 157 % of control, the T/C (dose: 5.0 mg/kg/injection, schedule: Q01DX009 (ip), vehicle: other) was 155 % of control and 163 % of control and 175 % of control and the T/C (dose: 10.0 mg/kg/injection, schedule: Q01DX009 (ip), vehicle: other) was 112 % of control.
For CC(C)(C)c1ccc(OCC(COc2ccc(C(C)(C)C)cc2)(COc2ccc(C(C)(C)C)cc2)COc2ccc(C(C)(C)C)cc2)cc1, the T/C (dose: 7.5 mg/kg/injection, schedule: Q01DX009 (ip), vehicle: saline with Tween-80) was 98 % of control, the T/C (dose: 15.0 mg/kg/injection, schedule: Q01DX009 (ip), vehicle: saline with Tween-80) was 95 % of control and the T/C (dose: 30.0 mg/kg/injection, schedule: Q01DX009 (ip), vehicle: saline with Tween-80) was 93 % of control.
For N#Cc1c(NC(=O)Nc2ccc(F)cc2F)sc(=S)c2c1CCCC2, the T/C [1] was 100 % of control and the T/C [2] was 99 % of control.
For O=C(NC(=NC(=NC1CCCCC1)c1ccccc1)c1ccccc1)c1ccccc1, the T/C [1] was 99 % of control, the T/C [2] was 92 % of control and the T/C [3] was 89 % of control.
O=[N+]([O-])/C=C/c1c[nH]c2c1ccc1ccccc12 was tested, and the T/C [11] was 86 % of control and the T/C [12] was 94 % of control.
In the case of COC(=O)/C=C/C(=O)NC(O)C(Cl)(Cl)Cl (configuration not stated), the T/C [10] is reported as 102 % of control, the T/C [11] is reported as 107 % of control and the T/C [12] is reported as 102 % of control.
In the case of C(=C\c1cc2cc(C3=NCCN3)ccc2o1)/c1ccc(C2=NCCN2)cc1, the T/C (dose: 100.0 mg/kg/injection, schedule: Q04DX003 (ip), vehicle: saline) is reported as 153 % of control and 157 % of control.
In the case of O=C1C=CC(=Nc2cccc3c2C(=O)c2ccccc2-3)O1, the T/C [10] is reported as 107 % of control and 115 % of control, the T/C [11] is reported as 120 % of control and 122 % of control and the T/C [12] is reported as 122 % of control.
In the case of Nc1c2c(=O)[nH]c(O)cc2nn1-c1ccccc1, the T/C (dose: 12.5 mg/kg/injection, schedule: Q01DX005 (ip), vehicle: saline with Tween-80) is reported as 100 % of control, the T/C [13] is reported as 96 % of control and the T/C [10] is reported as 100 % of control and 97 % of control.
In the case of Cc1c(N=Nc2cccc(Cl)c2Cl)c(-c2ccccc2)nn1C(N)=S, the T/C (dose: 25.0 mg/kg/injection, schedule: Q01DX005 (ip), vehicle: Klucel (hydroxypropylcellulose) (HPC)) is reported as 94 % of control, the T/C [17] is reported as 99 % of control and the T/C [18] is reported as 96 % of control.
In the case of Cc1ccc2c(c1)C1(SC(C)C(=O)N1c1ccc(F)cc1)C(=O)N2 (configuration not stated), the T/C [7] is reported as 89 % of control, the T/C [8] is reported as 90 % of control and the T/C [9] is reported as 87 % of control.
In the case of COc1ccc(C2ON=C(c3cc(C)cc(Br)c3O)C2[N+](=O)[O-])cc1 (configuration not stated), the T/C [4] is reported as 90 % of control, the T/C [5] is reported as 94 % of control and the T/C [6] is reported as 94 % of control.
With CC(=O)OCC1(OC(=O)CC(C)C)COC(O)C2C(C=O)=CC=C21 (configuration not stated) the T/C (dose: 3.12 mg/kg/injection, schedule: Q01DX005 (ip), vehicle: Klucel (hydroxypropylcellulose) (HPC)) was 102 % of control, the T/C (dose: 6.25 mg/kg/injection, schedule: Q01DX005 (ip), vehicle: Klucel (hydroxypropylcellulose) (HPC)) was 100 % of control and the T/C (dose: 12.5 mg/kg/injection, schedule: Q01DX005 (ip), vehicle: Klucel (hydroxypropylcellulose) (HPC)) was 101 % of control.
For COc1ccc2c(c1O)C1=CC(O)CCC13CCN(C)C3C2 (configuration not stated), the T/C (dose: 100.0 mg/kg/injection, schedule: Q04DX002 (ip), vehicle: suspension in saline) was 100 % of control, the T/C (dose: 200.0 mg/kg/injection, schedule: Q04DX002 (ip), vehicle: suspension in saline) was 96 % of control and the T/C (dose: 400.0 mg/kg/injection, schedule: Q04DX002 (ip), vehicle: suspension in saline) was 103 % of control.
For CN1C(c2ccccc2)=C(C#N)C(=O)CC(c2ccco2)N1C (configuration not stated), the T/C [7] was 98 % of control, the T/C [8] was 92 % of control and the T/C [9] was 89 % of control.
CCCCCCCC[N+](C)(C)Cc1ccc(Oc2ccc(C[N+](C)(C)CCCCCCCC)cc2)cc1 was tested, and the T/C (dose: 6.25 mg/kg/injection, schedule: Q04DX003 (ip), vehicle: saline) was 108 % of control, the T/C (dose: 12.5 mg/kg/injection, schedule: Q04DX003 (ip), vehicle: saline) was 110 % of control and the T/C (dose: 25.0 mg/kg/injection, schedule: Q04DX003 (ip), vehicle: saline) was 110 % of control.
For C[C@]12CC[C@@H]3c4ccc(O)cc4CC[C@H]3[C@@H]1C[C@@H](O)[C@@H]2O, the T/C (dose: 50.0 mg/kg/injection, schedule: Q01DX009 (ip), vehicle: saline) was 112 % of control, the T/C (dose: 100.0 mg/kg/injection, schedule: Q01DX009 (ip), vehicle: saline) was 100 % of control and the T/C (dose: 200.0 mg/kg/injection, schedule: Q01DX009 (ip), vehicle: saline) was 100 % of control. The T/C (dose: 400.0 mg/kg/injection, schedule: Q01DX009 (ip), vehicle: saline) was 91 % of control.
With O=C(O)c1cnccc1C(=O)c1ccccc1 the T/C [17] was 101 % of control, the T/C [18] was 101 % of control and the T/C (dose: 200.0 mg/kg/injection, schedule: Q01DX005 (ip), vehicle: Klucel (hydroxypropylcellulose) (HPC)) was 92 % of control.
